Measurements taken from patent EP0415304A2, “Dipyrido[3,2-b:2',3'-e][1,4]oxazepin (and thiazepin)-6(5H)-ones and their use in the prevention or treatment of aids” (BOEHRINGER INGELHEIM PHARMACEUTICALS INC., priority 1989, dated 1991).

Target: T1, HIV-1 RT (Human immunodeficiency virus type 1 group M subtype B, UniProt P03367)
T1 construct: Reverse transcriptase enzyme from the LAV strain of Human Immunodeficiency Virus (HIV-1) (1) was isolated from the bacterial strain JM109; made in house; host or cells: E. coli JM109, clone pBRTprtl+ in vector pIB121 under the lac promoter
Assay: Reverse Transcriptase (RT) Assay: inhibition of RNA-dependent DNA polymerase activity
Assay type: biochemical
Conditions: tested at a concentration of 10µg/ml; read-out: inhibit the enzyme (percent inhibition of RNA-dependent DNA polymerase activity of HIV-1 RT)
Description: Utilizing the Reverse Transcriptase (RT) Assay described below, compounds can be tested for their ability to inhibit the RNA-dependent DNA polymerase activity of HIV-1 RT. The compound described in Example 1, which appears below, was so tested.
Among the enzymes for which Human Immunodeficiency Virus (HIV-1) encodes is a reverse transcriptase (1), so-named because it transcribes a DNA copy from an RNA template. This activity can be quantitatively measured in a cell-free enzyme assay which has been previously described (2), and is based upon the observation that reverse transcriptase is able to use a synthetic template [poly r(C) primed with oligo d(G)] to transcribe a radio-labelled, acid-precipitable DNA strand utilizing ³H-dGTP as a substrate.
Reverse transcriptase enzyme from the LAV strain of Human Immunodeficiency Virus (HIV-1) (1) was isolated from the bacterial strain JM109 (3) expressing the DNA clone pBRTprtl+ (2) which is under the control of the lac promotor in the expression vector pIB121 (4). […]
The 2X concentrated stock reaction mixture is aliquoted and stored at -20°C. […] Each vial receives 2 ml of scintillation cocktail and is counted in a Beckman beta counter. […]

CCCN1C(=O)c2cccnc2Oc2ncccc21 [Example 1, 5,6-Dihydro-5-propyl-6H-dipyrido[3,2-b:2′,3′-e][1,4]oxazepin-6-one]
inhibition at 10 µg/mL: 30%
